Measured values reported in US20130224110A1, “USE OF ADENOSINE RECEPTOR SIGNALING TO MODULATE PERMEABILITY OF BLOOD-BRAIN BARRIER” (CORNELL UNIVERSITY, priority 2010, published 2013).

B1: PEG-ADA: PEGylated adenosine deaminase (protein, UniProt P56658 2-363, looked up)
Adenosine deaminase: AQTPAFNKPKVELHVHLDGAIKPETILYYGRKRGIALPADTPEELQNIIGMDKPLSLPEFLAKFDYYMPAIAGCREAVKRIAYEFVEMKAKDGVVYVEVRYSPHLLANSKVEPIPWNQAEGDLTPDEVVSLVNQGLQEGERDFGVKVRSILCCMRHQPSWSSEVVELCKKYREQTVVAIDLAGDETIEGSSLFPGHVKAYAEAVKSGVHRTVHAGEVGSANVVKEAVDTLKTERLGHGYHTLEDATLYNRLRQENMHFEVCPWSSYLTGAWKPDTEHPVVRFKNDQVNYSLNTDDPLIFKSTLDTDYQMTKNEMGFTEEEFKRLNINAAKSSFLPEDEKKELLDLLYKAYGMPSPASAEQCL
modifications: PEGylated
notes: PEGylated adenosine deaminase

Experiments:
[1] = tested on: Z310 cells; experiment: Jurkat cell migration across Z310 choroid plexus cell transwell; type: cell-based, murine; details: 24 hours, n=1
Experimental: To test the hypothesis, Transwell membranes were seeded with Z310 cells and allowed to grow to confluencey. 2×10^6 Jurkat cells were added to the upper chamber with or with out NECA (n=1, general AR agonist), CCPA (n=1, A1 AR agonist), CGS 21860 (n=1, A2A AR agonist), or DMSO vehicle(n=1). After 24 hours, migrated cells in the lower chamber were counted. Values are relative to the number of cells that migrate through non-Z310 seeded transwells and the results are shown in FIG. 12.

[2] = tested on: Bend.3 cells; experiment: F-actin (phalloidin) staining of endothelial cells; type: cell-based, mouse; details: BECs, 1 μM, 3 or 30 min, vs vehicle
Experimental: Bend.3 cells were grown (as described above) on circular cover slips in 24-well plates. Cells were treated for 3 or 30 min with 1 μM CCPA, 1 μM […], DMSO or media alone. Cover slips were washed with PBS, fixed in 4% paraformaldahyde, washed again in PBS and then permeabilized with 0.5% TritonX-100 in PBS. After washing in PBS/1% BSA, cover slips were blocked with 1% BSA then stained with Phallodin-Alexa 568. Cover slips were washed and mounted on slides with ProlongGold containing DAPI (Invitrogen). Images were obtained on an Olympus BX51 fluorescent microscope.

[3] = tested on: hCMEC/D3 cells; experiment: Jurkat cell migration across hCMEC/D3 transwell in vitro BBB; type: cell-based, human; details: 24 hours
Experimental: hCMEC/D3 cells were seeded onto Transwell and allowed to grow to confluencey. 2×10^6 Jurkat cells were added to the upper chamber with or without NECA (general adenosine receptor [AR] agonist), CCPA (A1 AR agonist), CGS 21860 (A2A AR agonist), or DMSO vehicle. After 24 hours, migrated cells in the lower chamber were counted. Values are relative to the number of cells that migrate through non-[…]3 seeded transwells.

[4] = tested on: blood brain barrier; experiment: Fluorescently labeled dextran extravasation into mouse brain (fluorimetry); type: in vivo, mice; details: wild type mice, 10,000 Da FITC-dextran, i.v., 3 h, vs vehicle
Experimental: The adenosine receptor agonists NECA, CCPA, CGS 21860, and SCH 58261 (Tocris, Ellisville, Mo.) were each dissolved in DMSO then diluted in PBS to the desired concentration; in most cases final DMSO concentrations were <0.5% (vol/vol). Lexiscan (Regadenoson; TRC, Inc., Toronto) was dissolved in PBS. For vehicle controls, DMSO was diluted in PBS to the same concentration. Dehydrated dextrans labeled with either FITC or Texas Red (Invitrogen, Carlsbad, Calif.) were re-suspended in PBS to 10 mg/ml. All experiments involving dextran injection used 1.0 mg dextran in PBS. In experiments where drug and dextran were injected concomitantly, 1.0 mg of dextran was mixed with the drug to the desired concentration in a final volume of 200 μl. In dose-response experiments, drugs and dextrans were injected concomitantly. All injections, except injections of SCH 58261, were retro-orbital i.v. with a 27-gauge needle. In the SCH 58261 experiment, SCH 58261 injections, 1 mg/kg, were intraperitoneal and mice were pre-dosed with this concentration daily for 4 days prior to the day of the experiment. An additional injection was administered at the time of the experiment. Vehicle/drug and dextrans were injected on day 5 and tissues were collected 3 h after vehicle/drug administration. In Lexiscan experiments, Lexiscan was administered i.v. with 3 injections, 5 min apart and tissues were collected at 15 min unless otherwise indicated.
In dose-response experiments and experiments with the A1 AR and A2A AR knock-out mice, drugs and dextrans were injected concomitantly. After 3 h, the mice were anesthetized with ketamine/xylazine and subjected to a nose cone containing isoflurane. They were perfused with 25-50 ml ice-cold PBS through the left ventricle of the heart then decapitated. Their brains were removed, weighed and frozen for later analysis.
Ice-cold 50 mMTris-Cl (pH 7.6) was added to frozen brains (100 μl per 100 mg brain) and were to thawed on ice. They were homogenized with a dounce homogenizer and centrifuged at […] in a microfuge for 30 min at room temperature (rt). The supernatants were transferred to new tubes and an equal volume absolute methanol was added. The samples were centrifuged again at […] for 30 min at rt. Supernatant (200 μl) was transferred to a Corning costar 96 well black polystyrene assay plate (clear bottom). Additionally, a series of standards containing 0.001-10 pg/ml dextran in 50% Tris-Cl/50% absolute methanol (vol/vol) was added to each plate. Absolute concentrations of dextrans were derived from these standard curves. Fluorimetric analysis was performed on a BioTek (Winooski, Vt.) Synergy 4. FITC-dextran was detected at 488/519 (excitation/emission) and Texas Red-dextran was detected at 592/618.

[5] = tested on: HCMECD3 cells; experiment: cAMP levels in human brain endothelial cells (cAMP Screen kit); type: cell-based; details: 15 minutes
Experimental: […]3 cells were grown to confluencey on 24 well plates. As adenosine receptor (“AR”) stimulation is known to influence cAMP levels, cells were treated with or without various concentrations of NECA (general AR agonist), CCPA (A1 AR agonist), CGS 21860 (A2A AR agonist), DMSO vehicle, or Forksolin (induces cAMP). After 15 minutes, lysis buffer was added and the cells were frozen at -80 C to stop the reaction. Duplicate samples were used for each condition. cAMP levels were assayed using a cAMP Screen kit (Applied Biosystems, Foster City, Calif.).

[6] = tested on: EAE; experiment: EAE induction and scoring (MOG35-55/CFA/PTX); type: in vivo, mice
Source text: Cd73^−/− mice have been previously described (Thompson et al., “Crucial Role for Ecto-5′-Nucleotidase (CD73) in Vascular Leakage During Hypoxia,” J. Exp. Med. 200:1395-1405 (2004), which is hereby incorporated by reference in its entirety) and have been backcrossed to C57BL/6 for 14 generations. Cd73^−/− mice have no overt susceptibility to infection and appear normal based on the size and cellular composition of their lymphoid organs and their T and B cell responses in in vivo and in vitro assays (Thompson et al., “Crucial Role for Ecto-5′-Nucleotidase (CD73) in Vascular Leakage During Hypoxia,” J. Exp. Med. 200:1395-1405 (2004), which is hereby incorporated by reference in its entirety). C57BL/6 and tcrα^−/− mice on the C57BL/6 background were purchased from The Jackson Laboratories. Mice were bred and housed under specific pathogen-free conditions at Cornell University or the University of Turku. For adenosine receptor blockade experiments, mice were given drinking water supplemented with 0.6 g/L of caffeine (Sigma) or 2 mg/kg SCH58261 (1 mg/kg s.c. and 1 mg/kg i.p.) in DMSO (45% vol. in PBS) or 45% DMSO alone starting 1 day before EAE induction and continuing throughout the experiment. All procedures performed on mice were approved by the relevant animal review committee.
EAE was induced by subjecting mice to the myelin oligodendrocyte glycoprotein (“MOG”) EAE-inducing regimen as described in Swanborg, “Experimental Autoimmune Encephalomyelitis in Rodents as a Model for Human Demyelinating Disease,” Clin. Immunol. Immunopathol. 77:4-13 (1995) and Bynoe et al., “Epicutaneous Immunization with Autoantigenic Peptides Induces T Suppressor Cells that Prevent Experimental Allergic Encephalomyelitis,” Immunity 19:317-328 (2003), which are hereby incorporated by reference in their entirety. […] Mice were scored daily for EAE based on disease symptom severity; 0=no disease, 0.5-1=weak/limp tail, 2=limp tail and partial hind limb paralysis, 3=total hind limb paralysis, 4=both hind limb and fore limb paralysis, 5=death. […]
As CD73 catalyzes the breakdown of AMP to adenosine and ARs are expressed in the CNS (Tsutsui et al., “A1 Adenosine Receptor Upregulation and Activation Attenuates Neuroinflammation and Demyelination in a Model of Multiple Sclerosis,” J. Neurosci. 24:1521-1529 (2004)); Rosi et al., The Influence of Brain Inflammation Upon Neuronal Adenosine A2B Receptors,” J. Neurochem. 86:220-227 (2003), which are hereby incorporated by reference in their entirety), it was next determined if AR signaling is important during EAE progression. […] Since CD73 is highly expressed on the choroid plexus (FIG. 6C), it was next determined if ARs are also expressed on the choroid plexus. […]

[7] = Klabunde 1983; cited from earlier work

Molecule | lymphocyte (Jurkat) migration across the CP [1] | lymphocyte (Jurkat) migration across the in vitro BBB [3] | dextran entry into the CNS [4] | cAMP levels [5] | other results
OC[C@H]1O[C@@H](n2cnc3c(NC4CCCC4)nc(Cl)nc32)[C@H](O)[C@@H]1O [CCPA, 2-chloro-N^6-cyclopentyladenosine] | induced lymphocyte migration at high levels | induced lymphocyte migration at high levels | increased dextran entry into the CNS | increased cAMP levels | actinomyosin stress fiber formation [2]: marked induction of actinomycin stress fibers
Cn1c(=O)c2c(ncn2C)n(C)c1=O [caffeine] | – | – | – | – | EAE development ([6]; cd73−/− mice, caffeine 0.6 g/L in drinking water): did not develop EAE; EAE development ([6]; wild type mice, caffeine 0.6 g/L in drinking water from 1 day prior to and throughout EAE experiment): dramatically protected against EAE development
Nc1ncnc2c1ncn2[C@@H]1O[C@H](CO)[C@@H](O)[C@H]1O [adenosine] | – | – | – | – | half-life [7]: < 10 s
CCNC(=O)[C@H]1O[C@@H](n2cnc3c(N)nc(NCCc4ccc(CCC(=O)O)cc4)nc32)[C@H](O)[C@@H]1O [CGS 21680, 4-[2-[[6-Amino-9-(N-ethyl-b-D-ribofuranuronamidosyl)-9H-purin-2-yl]amino]ethyl]benzenepropanoic acid] | promoted lymphocyte migration across the CP | promoted lymphocyte migration across the in vitro BBB when used at a lower concentration | increased dextran entry into the CNS | slightly increased cAMP levels | –
B1 | – | – | – | – | EAE development ([6]; wild-type mice, 15 units/kg i.p. every 4 days, vs PBS vehicle): inhibits the development of EAE
